Test results from US20260201008A1, “SECRETIN-DERIVED GLP1R SELECTIVE AGONISTS” (GUBRA A/S, priority 2023, published 2026).
Like-named read-outs stand apart in the source and are kept apart here. Numbered stars: 1 amine (or outer) side, 2 acyl side, 3 side chain; on linkers, the order of the positions; unused ones are H or OH. Square brackets hold non-standard residues; d marks the D form. Side chains are listed from the residue outwards. Peptide text beside a SMILES is read from it. * marks the point of attachment. C20 diacid = O=C(O)CCCCCCCCCCCCCCCCCCC(=O)*; γGlu = O=C(O)[C@H](CCC(=O)[*:2])N[*:1]; AEEA = NCCOCCOCC(=O)O; Aib = CC(C)(N)C(=O)O

Legend:
[1] = Turbidity of crude library peptides (absorbance at 600 nm); format: physicochemical; conditions: Physical stability of peptides
Procedure, shortened: (§1)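 Fibril formation is scored as average ThT fluorescence from duplicate samples monitored for 72 h at 40° C with shaking stress. Turbidity is the absorbance at 600 nm taken before heating. Peptide concentration was 267 μM at pH 4.0 or pH 7.0.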

[2] = Fibril formation of crude library peptides (Thioflavin T); format: physicochemical; design: key: average ThT fluorescence emission at 480 nm (ex 450 nm), raw units; conditions: Physical stability of peptides
Procedure, shortened: as §1

[3] = biological target: GLP1R (Homo sapiens, UniProt P43220); experiment: hGLP1R potency, cAMP accumulation in CHO-K1 cells stably overexpressing hGLP1R; format: cell-based; design: host or cells: CHO-K1; conditions: for Selectivity: SCTR EC50/GLP1R EC50 ratio; for EC50: cAMP accumulation, CHO-K1 cells overexpressing hGLP1R; for SCTR EC50/GLP1R EC50 ratio: selectivity for hGLP1R over hSCTR, cAMP accumulation in CHO-K1 cells
GLP1R, sequence (P43220 24-463): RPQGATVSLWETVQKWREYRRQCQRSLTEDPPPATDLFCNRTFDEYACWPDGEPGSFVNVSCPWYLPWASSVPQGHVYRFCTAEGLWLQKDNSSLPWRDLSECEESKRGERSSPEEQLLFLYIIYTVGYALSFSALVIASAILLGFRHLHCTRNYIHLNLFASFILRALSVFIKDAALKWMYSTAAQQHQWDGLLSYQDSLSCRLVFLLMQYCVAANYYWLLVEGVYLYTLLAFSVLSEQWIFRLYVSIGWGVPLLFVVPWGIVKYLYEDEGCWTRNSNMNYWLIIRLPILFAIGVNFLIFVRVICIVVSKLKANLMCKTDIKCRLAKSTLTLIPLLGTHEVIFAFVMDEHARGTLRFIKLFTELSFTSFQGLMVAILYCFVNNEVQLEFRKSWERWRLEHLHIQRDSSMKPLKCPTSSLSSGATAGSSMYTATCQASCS
Procedure, shortened: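 In the presence of 0.5 mM IBMX, compounds stimulated the cells for 30 minutes at room temperature. Accumulated cAMP was then detected by TR-FRET, with EC50 values fitted by variable-slope nonlinear regression.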

[4] = biological target: SCTR (Homo sapiens, UniProt P47872); experiment: hSCTR potency, cAMP accumulation in CHO-K1 cells stably overexpressing hSCTR; format: cell-based; design: alternatively Euroscreen ES-712-AF; FAST-0161L; host or cells: CHO-K1; conditions: cAMP accumulation, CHO-K1 cells overexpressing hSCTR
SCTR, sequence (P47872 23-440): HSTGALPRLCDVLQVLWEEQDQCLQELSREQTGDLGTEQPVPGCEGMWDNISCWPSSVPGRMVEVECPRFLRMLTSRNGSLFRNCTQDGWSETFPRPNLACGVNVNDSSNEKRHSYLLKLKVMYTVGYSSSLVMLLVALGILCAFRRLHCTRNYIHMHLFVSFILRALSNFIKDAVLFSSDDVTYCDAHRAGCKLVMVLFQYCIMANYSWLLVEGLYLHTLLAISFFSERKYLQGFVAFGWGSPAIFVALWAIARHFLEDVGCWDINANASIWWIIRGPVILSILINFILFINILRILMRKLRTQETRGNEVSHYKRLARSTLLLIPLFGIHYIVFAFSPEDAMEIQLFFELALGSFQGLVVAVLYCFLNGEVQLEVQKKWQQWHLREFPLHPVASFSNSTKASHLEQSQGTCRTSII
Procedure, shortened: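 In this Gs cAMP assay, stably transfected CHO-K1 hSCTR cells were stimulated at room temperature for 30 min in IBMX-containing buffer. Time-resolved FRET gave the signal. Replicates were increased when the top concentration changed or EC50 values differed 5-fold.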

[5] = read-out: pEC50 hGLPR1 (converted)
[6] = read-out: pEC50 hSCTR (converted)
[7] = read-out: hGLP1R pEC50 (converted)
[8] = read-out: hSCTR pEC50 (converted)

| Turbidity (pH 7) [1] | Fibril formation [2] | Selectivity [3] | EC50 [3, 5] [nM] | EC50 [4, 6] [nM] | EC50 [3, 7] [nM] | SCTR EC50/GLP1R EC50 ratio [3] | EC50 [4, 8] [nM] | SMILES |
| --- | --- | --- | --- | --- | --- | --- | --- | --- |
| 0.09 | 12385 | 3961 | 0.0794 | 316 | – | – | – | CC(C)C[C@H](NC(=O)[C@H](Cc1ccccc1)NC(=O)[C@H](CCCNC(=N)N)NC(=O)[C@H](CCC(N)=O)NC(=O)[C@H](C)NC(=O)[C@H](C)NC(=O)[C@H](C)NC(=O)C(C)(C)NC(=O)[C@H](CCC(=O)O)NC(=O)[C@H](CCCCNC(=O)COCCOCCNC(=O)COCCOCCNC(=O)CC[C@H](NC(=O)CCCCCCCCCCCCCCCCCCC(=O)O)C(=O)O)NC(=O)[C@H](CC(C)C)NC(=O)[C@@H](NC(=O)[C@H](CO)NC(=O)[C@@H](NC(=O)[C@H](CC(=O)O)NC(=O)[C@H](CO)NC(=O)[C@@H](NC(=O)[C@H](Cc1ccccc1)NC(=O)[C@@H](NC(=O)CNC(=O)[C@H](CCC(=O)O)NC(=O)C(C)(C)NC(=O)[C@@H](N)Cc1c[nH]cn1)[C@@H](C)O)[C@@H](C)O)C(C)C)C(C)C)C(=O)N[C@@H](CCC(=O)O)C(=O)N[C@@H](Cc1c[nH]cn1)C(=O)N[C@@H](CC(C)C)C(=O)N[C@H](C(N)=O)C(C)C [compound 15] (H-H[Aib]EGTFTSDVSVLK([AEEA-AEEA-γGlu-C20 diacid])E[Aib]AAAQRFLEHLV-NH2) |
| 0.12 | 5327 | – | – | – | 7.94 | 1220 | 10000 | CC[C@H](C)[C@H](NC(=O)[C@H](Cc1ccccc1)NC(=O)[C@H](CCCNC(=N)N)NC(=O)[C@H](CCC(N)=O)NC(=O)[C@H](CC(C)C)NC(=O)[C@H](C)NC(=O)[C@H](C)NC(=O)CNC(=O)[C@H](CCC(=O)O)NC(=O)[C@H](CC(C)C)NC(=O)[C@H](CC(C)C)NC(=O)[C@@H](NC(=O)[C@H](CO)NC(=O)[C@@H]1CCCN1C(=O)[C@H](CC(=O)O)NC(=O)[C@H](CO)NC(=O)[C@@H](NC(=O)[C@H](Cc1ccccc1)NC(=O)[C@@H](NC(=O)CNC(=O)[C@H](CCC(=O)O)NC(=O)C(C)(C)NC(=O)[C@@H](N)Cc1c[nH]cn1)[C@@H](C)O)[C@@H](C)O)C(C)C)C(=O)N[C@@H](CCC(N)=O)C(=O)N[C@@H](Cc1c[nH]c2ccccc12)C(=O)N[C@@H](CC(C)C)C(=O)N[C@H](C(N)=O)C(C)C [compound 129] (H-H[Aib]EGTFTSDPSVLLEGAALQRFIQWLV-NH2) |
| 0.11 | 99118 | 4095 | 0.02 | 100 | – | – | – | CC(C)C[C@H](NC(=O)[C@H](Cc1ccccc1)NC(=O)[C@H](CCCNC(=N)N)NC(=O)[C@H](CCC(N)=O)NC(=O)[C@@H](NC(=O)[C@H](C)NC(=O)[C@H](C)NC(=O)[C@@H](NC(=O)[C@H](CCC(=O)O)NC(=O)[C@H](CCCCNC(=O)COCCOCCNC(=O)COCCOCCNC(=O)CC[C@H](NC(=O)CCCCCCCCCCCCCCCCCCC(=O)O)C(=O)O)NC(=O)[C@H](CC(C)C)NC(=O)[C@H](Cc1ccccc1)NC(=O)[C@H](CO)NC(=O)[C@@H](NC(=O)[C@H](CC(=O)O)NC(=O)[C@H](CO)NC(=O)[C@@H](NC(=O)[C@H](Cc1ccccc1)NC(=O)[C@@H](NC(=O)CNC(=O)[C@H](CCC(=O)O)NC(=O)C(C)(C)NC(=O)[C@@H](N)Cc1c[nH]cn1)[C@@H](C)O)[C@@H](C)O)C(C)C)[C@@H](C)O)[C@@H](C)O)C(=O)N[C@@H](CCC(=O)O)C(=O)N[C@@H](Cc1c[nH]cn1)C(=O)N[C@@H](CC(C)C)C(=O)N[C@H](C(N)=O)C(C)C [compound 70] (H-H[Aib]EGTFTSDVSFLK([AEEA-AEEA-γGlu-C20 diacid])ETAATQRFLEHLV-NH2) |
| 0.77 | 29072 | – | – | – | 0.0631 | 891 | 63.1 | CC[C@H](C)[C@H](NC(=O)[C@H](Cc1ccccc1)NC(=O)[C@H](CCCNC(=N)N)NC(=O)[C@H](CCC(N)=O)NC(=O)[C@H](CC(C)C)NC(=O)[C@H](C)NC(=O)[C@H](C)NC(=O)CNC(=O)[C@H](CCC(=O)O)NC(=O)[C@H](CC(C)C)NC(=O)[C@H](CC(C)C)NC(=O)[C@H](CCCNC(=N)N)NC(=O)[C@H](CO)NC(=O)[C@@H](NC(=O)[C@H](CC(=O)O)NC(=O)[C@H](CO)NC(=O)[C@@H](NC(=O)[C@H](Cc1ccccc1)NC(=O)[C@@H](NC(=O)CNC(=O)[C@H](CCC(=O)O)NC(=O)C(C)(C)NC(=O)[C@@H](N)Cc1c[nH]cn1)[C@@H](C)O)[C@@H](C)O)C(C)C)C(=O)N[C@@H](CCC(N)=O)C(=O)N[C@@H](Cc1c[nH]c2ccccc12)C(=O)N[C@@H](CC(C)C)C(=O)N[C@H](C(N)=O)C(C)C [compound 178] (H-H[Aib]EGTFTSDVSRLLEGAALQRFIQWLV-NH2) |
| 0.09 | 14614 | 4808 | 0.0631 | 316 | – | – | – | CC(C)C[C@H](NC(=O)[C@H](Cc1ccccc1)NC(=O)[C@H](CCCNC(=N)N)NC(=O)[C@H](CCC(N)=O)NC(=O)C(C)(C)NC(=O)[C@H](C)NC(=O)[C@H](C)NC(=O)C(C)(C)NC(=O)[C@H](CCC(=O)O)NC(=O)[C@H](CCCCNC(=O)COCCOCCNC(=O)COCCOCCNC(=O)CC[C@H](NC(=O)CCCCCCCCCCCCCCCCCCC(=O)O)C(=O)O)NC(=O)[C@H](CC(C)C)NC(=O)[C@H](CCCNC(=N)N)NC(=O)[C@H](CO)NC(=O)[C@@H](NC(=O)[C@H](CC(=O)O)NC(=O)[C@H](CO)NC(=O)[C@@H](NC(=O)[C@H](Cc1ccccc1)NC(=O)[C@@H](NC(=O)CNC(=O)[C@H](CCC(=O)O)NC(=O)C(C)(C)NC(=O)[C@@H](N)Cc1c[nH]cn1)[C@@H](C)O)[C@@H](C)O)C(C)C)C(=O)N[C@@H](CCC(=O)O)C(=O)N[C@@H](Cc1c[nH]cn1)C(=O)N[C@@H](CC(C)C)C(=O)N[C@H](C(N)=O)C(C)C [compound 64] (H-H[Aib]EGTFTSDVSRLK([AEEA-AEEA-γGlu-C20 diacid])E[Aib]AA[Aib]QRFLEHLV-NH2) |
| 0.08 | 10378 | 13668 | 0.0631 | 1000 | – | – | – | CC(C)C[C@H](NC(=O)[C@H](CCC(=O)O)NC(=O)[C@H](CCCCNC(=O)COCCOCCNC(=O)COCCOCCNC(=O)CC[C@H](NC(=O)CCCCCCCCCCCCCCCCCCC(=O)O)C(=O)O)NC(=O)[C@H](CC(C)C)NC(=O)[C@H](CCCNC(=N)N)NC(=O)[C@H](CO)NC(=O)[C@@H](NC(=O)[C@H](CC(=O)O)NC(=O)[C@H](CO)NC(=O)[C@@H](NC(=O)[C@H](Cc1ccccc1)NC(=O)[C@@H](NC(=O)CNC(=O)[C@H](CCC(=O)O)NC(=O)C(C)(C)NC(=O)[C@@H](N)Cc1c[nH]cn1)[C@@H](C)O)[C@@H](C)O)C(C)C)C(=O)N[C@@H](C)C(=O)N[C@@H](C)C(=O)N[C@@H](C)C(=O)N[C@@H](CCC(N)=O)C(=O)N[C@@H](CCCNC(=N)N)C(=O)N[C@@H](Cc1ccccc1)C(=O)N[C@@H](CC(C)C)C(=O)N[C@@H](CCC(=O)O)C(=O)N[C@@H](Cc1c[nH]cn1)C(=O)N[C@@H](CC(C)C)C(=O)N[C@H](C(N)=O)C(C)C [compound 9] (H-H[Aib]EGTFTSDVSRLK([AEEA-AEEA-γGlu-C20 diacid])ELAAAQRFLEHLV-NH2) |
| 0.09 | 11873 | 9419 | 0.0316 | 251 | – | – | – | CC(C)C[C@H](NC(=O)[C@H](Cc1ccccc1)NC(=O)[C@H](CCCNC(=N)N)NC(=O)[C@H](CCC(N)=O)NC(=O)[C@H](C)NC(=O)[C@H](C)NC(=O)[C@H](C)NC(=O)[C@H](CCC(=O)O)NC(=O)[C@H](CCC(=O)O)NC(=O)[C@H](CCCCNC(=O)COCCOCCNC(=O)COCCOCCNC(=O)CC[C@H](NC(=O)CCCCCCCCCCCCCCCCCCC(=O)O)C(=O)O)NC(=O)[C@H](CC(C)C)NC(=O)[C@H](CCCNC(=N)N)NC(=O)[C@H](CO)NC(=O)[C@@H](NC(=O)[C@H](CC(=O)O)NC(=O)[C@H](CO)NC(=O)[C@@H](NC(=O)[C@H](Cc1ccccc1)NC(=O)[C@@H](NC(=O)CNC(=O)[C@H](CCC(=O)O)NC(=O)C(C)(C)NC(=O)[C@@H](N)Cc1c[nH]cn1)[C@@H](C)O)[C@@H](C)O)C(C)C)C(=O)N[C@@H](CCC(=O)O)C(=O)N[C@@H](Cc1c[nH]cn1)C(=O)N[C@@H](CC(C)C)C(=O)N[C@H](C(N)=O)C(C)C [compound 60] (H-H[Aib]EGTFTSDVSRLK([AEEA-AEEA-γGlu-C20 diacid])EEAAAQRFLEHLV-NH2) |
